Our source for the IC50, CLint scaled and inhibition values is patent publication US8314240B2, “Sulfonamide compounds or salts thereof” (Astellas Pharma Inc., priority 2008, dated 2012).

One data set addresses T1, rat EP1 receptor (Rattus norvegicus, UniProt P70597).
T1 construct: expressed in transfected cells
T1 sequence (P70597 1-405): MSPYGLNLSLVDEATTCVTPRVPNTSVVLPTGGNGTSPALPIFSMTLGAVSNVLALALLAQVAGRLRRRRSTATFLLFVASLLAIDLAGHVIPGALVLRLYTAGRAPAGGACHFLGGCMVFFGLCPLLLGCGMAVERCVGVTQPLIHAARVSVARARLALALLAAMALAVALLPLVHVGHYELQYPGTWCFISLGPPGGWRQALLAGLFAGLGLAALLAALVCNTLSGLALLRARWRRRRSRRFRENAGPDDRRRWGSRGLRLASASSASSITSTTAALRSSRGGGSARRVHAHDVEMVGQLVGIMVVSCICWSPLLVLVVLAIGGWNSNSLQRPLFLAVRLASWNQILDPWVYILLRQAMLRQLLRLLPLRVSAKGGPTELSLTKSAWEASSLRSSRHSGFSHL
The data set is described as follows: Test to measure receptor antagonistic activity using EP1 receptor-expressing cells (PGE2-induced intracellular Ca change, FLIPR). It is filed as cell-based. The note with it: HEK293 cells stably expressing rat EP1 receptor, 100 nM PGE2. Here is the method: Test Example 1 Test to Measure Receptor Antagonistic Activity Using EP1 Receptor-Expressing Cells
HEK293 cells (American Type Culture Collection) that stably expressed rat EP1 receptor were dispensed onto a 96-well poly-D-lysine-coated plate (product name: BIOCOAT, PDL96W black/clear, by Nippon Becton Dickinson) at 2×10^4 cells/well on the day before the experiment, and incubated overnight at 37° C. under 5% carbon dioxide (CO2) in a culture medium containing 10% fetal bovine serum (FBS) (product name: DMEM, Invitrogen). The culture medium was replaced with a loading buffer (a washing solution containing 4 μM of fluorescent-labeled indicator (product name: Fluo3-AM, Dojindo): Hank's balanced salt solution (HBSS), 20 mM 2-[4-(2-hydroxyethyl)-1-piperazinyl]ethanesulfonic acid (HEPES)-sodium hydroxide (NaOH), 2.5 mM Probenecid, and 0.1% bovine serum albumin (BSA)), and left to stand at room temperature for 3 hours, and the cells were washed using a plate washer (product name: ELx405, Bio-Tek Instruments, Inc.) in which the washing solution had been set up. The compound that had been preliminarily dissolved and diluted in the washing solution was added thereto, and set up in a system for measuring the intracellular calcium (Ca) concentration (product name: FLIPR, Molecular Devices, Inc.). After 5 minutes, PGE2 was added to a final concentration of 100 nM, and the change in intracellular Ca concentration was measured. The difference between a maximum value and a minimum value in the intracellular Ca concentration change was determined, and retained as measurement data. When a response with addition of 100 nM PGE2 was taken as 0% and a response with addition of a buffer was taken as 100%, the concentration causing 50% inhibition was determined as an IC50 value. Further, in the table, Ex represents Example numbers as described later.

Data set [1] is described as follows: Test on metabolic stability in human liver microsome. The note with it: human liver microsomes, pH 7.4; human liver microsome 0.2 mg protein/ml, 37° C. 15 minutes, in vitro clearance by integration plot. It counts as in vitro ADME. Here is the method:
Test Example 5 Test on Metabolic Stability in Human Liver Microsome
Using a glass test tube, a test compound and human liver microsome (0.2 mg protein/ml) were incubated at 37° C. for 15 minutes in a 100 mM phosphate buffer (pH=7.4) containing 0.1 mM EDTA and 1 mM NADPH. Thereafter, the reaction was stopped by adding an aqueous solution containing 80% acetonitrile. Thereafter, each sample was analyzed by HPLC and the in vitro clearance (CLint) was calculated by an integration plot.

Data set [2] concerns the target T2, CYP3A4 (Homo sapiens, UniProt P08684).
T2 construct: human liver microsome (0.1 mg protein/ml); from tissue; host or cells: human liver microsome
Description: Cytochrome P450 (CYP) 3A4 enzyme inhibition, Inhibition Test I. It is filed as in vitro ADME. The note with it: human liver microsomes, probe midazolam; human liver microsome 0.1 mg protein/ml, substrate midazolam, 37° C. 20 minutes; read-out: Inhibitory activity I (%). Here is the method: (§1) Test Example 4 Test on Cytochrome P450 (CYP) 3A4 Enzyme Inhibition (Evaluation of Drug Interaction)
(1) Inhibition Test I (Calculation of Inhibitory Activity I)
Using a 96-well plate, a substrate (midazolam), a test compound and human liver microsome (0.1 mg protein/ml) were incubated at 37° C. for 20 minutes in a 100 mM phosphate buffer containing 0.1 mM EDTA and 1 mM NADPH. Then, the reaction was stopped by adding an aqueous solution containing 80% acetonitrile. Thereafter, each sample was analyzed by LC/MS, and the inhibitory activity I was calculated using the following formula. Inhibitory Activity I(%)=100−Vi.I/V0.I×100
Vi,I: Metabolic rate of substrate in the presence of the test compound at a known concentration in the inhibition test I
V0,I: Metabolic rate of substrate in the absence of the test compound in the inhibition test I

Data set [3] deals with T2, CYP3A4. Description: Cytochrome P450 (CYP) 3A4 enzyme inhibition, Inhibition Test II (preincubation). It is filed as in vitro ADME. The note with it: human liver microsomes, pH 7.4, probe midazolam; human liver microsome 0.1 mg protein/ml, 30 minutes preincubation with test compound, then midazolam 20 minutes; read-out: Inhibitory activity II (%). Here is the method:
as §1
(2) Inhibition Test II (Calculation of Inhibitory Activity II)
Using a 96-well plate, a test compound and human liver microsome (0.1 mg protein/ml) were incubated at 37° C. for 30 minutes in a total amount of 145 μl of 100 mM phosphate buffer (pH=7.4) containing 0.1 mM EDTA and 1 mM NADPH. Then, midazolam as the substrate was added thereto and incubated at 37° C. for 20 minutes. After the incubation, the reaction was stopped by adding an aqueous solution containing 80% acetonitrile. Thereafter, each sample was analyzed by LC/MS, and the inhibitory activity II was calculated using the following formula. Inhibitory Activity II(%)=100−Vi,II/V0,II/(100-inhibitory activity I(%))×100×100
Vi,II: Metabolic rate of substrate in the presence of the test compound at a known concentration in the inhibition test II
V0,II: Metabolic rate of substrate in the absence of the test compound in the inhibition test II

T2 sequence (P08684 whole entry): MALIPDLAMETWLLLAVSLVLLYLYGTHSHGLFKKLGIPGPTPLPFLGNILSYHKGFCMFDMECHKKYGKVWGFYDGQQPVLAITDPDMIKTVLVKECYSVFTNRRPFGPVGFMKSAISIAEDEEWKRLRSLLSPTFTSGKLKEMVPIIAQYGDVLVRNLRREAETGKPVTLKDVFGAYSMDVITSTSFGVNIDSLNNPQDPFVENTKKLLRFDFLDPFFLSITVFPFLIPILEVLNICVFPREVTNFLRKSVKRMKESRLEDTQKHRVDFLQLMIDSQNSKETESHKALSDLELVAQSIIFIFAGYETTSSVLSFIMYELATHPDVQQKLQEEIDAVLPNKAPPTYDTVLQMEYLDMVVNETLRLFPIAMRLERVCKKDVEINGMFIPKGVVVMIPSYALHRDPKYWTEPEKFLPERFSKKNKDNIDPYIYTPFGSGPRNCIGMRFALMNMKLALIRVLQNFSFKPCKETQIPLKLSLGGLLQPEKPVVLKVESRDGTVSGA

Broadly, the IC50 is the point on the concentration scale where inhibition reaches its midpoint. Read a high IC50 as weaker potency. `Cc1cc(C(=O)O)ccc1COc1cc2c(cc1N(CC(C)F)S(=O)(=O)c1cc(F)cc(F)c1)CCC2` (stereo not shown) [Example 63] registered a half-maximal inhibitory concentration (IC50) on rat EP1 receptor of 0.3 nM.
The same measure, in the same setting: for `Cc1csc(S(=O)(=O)N(CC(C)F)c2cc3c(cc2OCc2ccc(C(=O)O)cc2C)CCC3)n1` (stereo not shown) [Example 66] the value was 0.53 nM.
Broadly, the CLint scaled is the capacity of the preparation to metabolise the compound, expressed as a volume cleared per time. For the molecule `Cc1csc(S(=O)(=O)N(CC(C)F)c2cc(C)c(Cl)cc2OCc2ccc(C(=O)O)cc2)n1` (stereo not shown) [Example 71], the CLint scaled in data set [1] was 9.18 L/h/kg. In addition, half-maximal inhibition against rat EP1 receptor (IC50) was put at 0.32 nM.
The molecule `Cc1csc(S(=O)(=O)N(CC(C)F)c2cc3c(cc2OCc2ccc(C(=O)O)s2)CCC3)n1` (stereo not shown) [Example 80] had a CLint scaled in data set [1] of 12.7 L/h/kg. Besides, at rat EP1 receptor, the concentration for half-maximal inhibition (IC50) worked out at 0.85 nM.
Take `C[C@@H](F)CN(c1cc2c(cc1OCc1ccc(C(=O)O)cc1)CCC2)S(=O)(=O)c1ccccn1` [Example 102]: the CLint scaled in data set [1] is 14.6 L/h/kg. Besides, the values for the inhibition at 20 min on CYP3A4 [2] and at CYP3A4 [3] were 1% and 0%, respectively. On rat EP1 receptor, this molecule gave an IC50 of 1.8 nM.
For `C[C@H](F)CN(c1cc2c(cc1OCc1ccc(C(=O)O)cc1)CCC2)S(=O)(=O)c1cccnc1` [Example 103], the CLint scaled in data set [1] was determined as 13.7 L/h/kg. The values for the inhibition at 20 min on CYP3A4 [2] and on CYP3A4 [3] were 12% and 7%, respectively. On rat EP1 receptor, this molecule showed an IC50 of 0.4 nM.
As to `Cc1csc(S(=O)(=O)N(C[C@H](C)F)c2cc3c(cc2OCc2ccc(C(=O)O)c(F)c2)CCC3)n1` [Example 113], on rat EP1 receptor, half-maximal inhibition (IC50) required 0.9 nM.
Molecule `Cc1cc(OCc2ccc(C(=O)O)cc2)c(N(C[C@@H](C)CF)S(=O)(=O)c2ccccn2)cc1C` [Example 117] had a CLint scaled in data set [1] of 3.48 L/h/kg. For the same molecule, the inhibition at 20 min worked out at 3% at CYP3A4 [2] and 5% at CYP3A4 [3]. Further, the IC50 against rat EP1 receptor was determined as 1.9 nM.
